# Test results taken from patent US20240398787A1, “TREATMENT OF MAJOR DEPRESSIVE DISORDER” (AbbVie Inc., priority 2021, published 2024).
# How the values were obtained:
# [1] = tested on: patients with major depressive disorder (MDD); assay: Adverse events and discontinuations during double-blind treatment period, Clinical Study A; assay type: in vivo, human; conditions: for TEAE: Akathisia / TEAE: Headache / TEAE: Insomnia / TEAE: Nausea / TEAE: Somnolence: N = 252; for Deaths: safety population; for Treatment-emergent adverse events (TEAEs): safety population N = 252
# Description: (§1) A global, multicenter, randomized, double-blind (DB), placebo-controlled, parallel-group, fixed-dose study compared cariprazine 1.5 mg/day and cariprazine 3 mg/day with placebo as an adjunctive treatment to ongoing ADT in outpatients with a diagnosis of MDD (via the Diagnostic and Statistical Manual of Mental Disorders, Fifth Edition [DSM-5]) having an inadequate response, as measured by the modified Antidepressant Treatment Response Questionnaire (ATRQ), to 1 to 3 antidepressants administered during the current episode at an adequate dose and adequate duration. Adequate dose was defined as a dose above the minimum labeled dose (per package insert). Adequate duration was defined as continuous ADT treatment for at least 6 weeks, with a minimum of 3 of 6 weeks above the minimal dose.
# (§2) The study consisted of up to 14 days screening (with up to an additional 7 days of needed) and washout of prohibited medications followed by 6 weeks of double-blind (DB) treatment followed by a 4-week safety follow-up. At the end of the screening period, patients meeting the entry criteria for the study were randomized (1:1:1) to 1 of 3 double-blind treatment groups. Study treatment groups were: cariprazine 1.5 mg/day+antidepressant therapy and cariprazine 3 mg/day+antidepressant therapy. The control group received matching placebo+antidepressant therapy.
# (§3) Dosage/Dose Regimen: Investigational product (cariprazine or placebo) in the form of capsules packaged in blister packs will be provided. No investigational product was administered during the screening/washout period; patients continued the same antidepressant and dose they were on at screening. Patients were taking more than one antidepressant at screening, regardless of the indication, discontinued all other antidepressants prior to baseline (Visit 2). During the double-blind treatment period (6 weeks), patients were administered 1 capsule orally per day in addition to their ongoing ADT. Patients in the 1.5 mg/day+ADT arm were administered 1.5 mg+ADT starting at Visit 2 (Week 0). Patients in the 3 mg/day+ADT arm were administered 1.5 mg+ADT starting at Visit 2 (Week 0) for 2 weeks and then titrate to 3 mg/day+ADT starting at Visit 4 (Week 2). Patients were supplied with identically appearing capsules of either cariprazine 1.5 mg, cariprazine 3 mg, or placebo.
# (§4) Following a screening period of up to 14 days (with up to an additional 7 days if needed), which included a washout of prohibited psychotropic medications except for ongoing ADT, patients with a partial response to their antidepressant monotherapy were randomized into three treatment groups (1:1:1). One group received cariprazine 1.5 mg/d+ADT, one received cariprazine 3.0 mg/d+ADT, and one group received placebo+ADT. All participants randomized to cariprazine began on 1.5 mg/d; cariprazine 1.5 mg/d patients remained at that dosage, while cariprazine 3.0 mg/d patients received 1.5 mg/d for 2 weeks and increased to 3.0 mg/d on day 15.
# Table 15 summarizes the most frequent TEAEs occurring in ≥5% in any treatment group, and Table 16 summarizes changes in weight. An AE was considered a treatment-emergent adverse event (TEAE) if the AE began or worsened (increased in severity or became serious) on or after the first dose of double-blinded investigational product.
# [2] = tested on: patients with major depressive disorder (MDD); assay: Clinical Global Impressions-Severity (CGI-S) score, Clinical Study A; assay type: in vivo, human; conditions: MMRM; for LS mean change from baseline, CGI-S score / LSMD vs placebo, CGI-S score: week 6
# Description: as §1, §2, §3
# as §4, with “A randomized, double-blind, placebo-controlled, multicenter trial with 759 participants was conducted in United States, Bulgaria, Estonia, Germany, Hungary, Ukraine, and the United Kingdom. Following” for “Following”
# The primary and secondary efficacy parameters were change from baseline to week 6 in Montgomery-Åsberg Depression Rating Scale (MADRS) total score and Clinical Global Impressions-Severity (CGI-S) score, respectively (screening, baseline, and weeks 1, 2, 4, and 6). Additional efficacy parameters (screening, baseline, and ≥1 double-blind visit) included: MADRS response (≥50% MADRS total score reduction) and remission (MADRS total score ≤10); change from baseline in HAMD-17 total score and Hamilton Anxiety Rating Scale (HAM-A) total score (32); and Clinical Global Impressions-Improvement (CGI-I) score and response (CGI-I score ≤2).
# The CGI-S (Guy 1976) is a clinician-rated scale that measures the overall severity of a patient's illness in comparison with the severity in other patients the physician has observed. […]
# [3] = 1.5 mg/day + ADT, double-blind period
# [4] = 1.5 mg/day + ADT, randomized population N = 252
# [5] = 3.0 mg/day + ADT, double-blind period
# [6] = 3 mg/day + ADT, randomized population N = 253
structure (smiles),measurement,setting,value
"CN(C)C(=O)N[C@H]1CC[C@H](CCN2CCN(c3cccc(Cl)c3Cl)CC2)CC1 [Cariprazine, trans-N-{4-[2-[4-(2,3-dichlorophenyl)piperazin-1-yl]ethyl]cyclohexyl}-N′,N′-dimethylurea]",TEAE: Akathisia,[1]; 1.5 mg/day + ADT,13 (5.2) n (%)
same,TEAE: Headache,[1]; 1.5 mg/day + ADT,22 (8.7) n (%)
same,TEAE: Insomnia,[1]; 1.5 mg/day + ADT,18 (7.1) n (%)
same,TEAE: Nausea,[1]; 1.5 mg/day + ADT,20 (7.9) n (%)
same,TEAE: Somnolence,[1]; 1.5 mg/day + ADT,13 (5.2) n (%)
same,Any Extrapyramidal Symptoms (EPS) TEAEs,[1]; [3],25 (9.9) n (%)
same,Treatment-emergent Serious AE (TESAE),[1]; [3],1 (0.4) n (%)
same,Deaths,[1]; [3],0 n (%)
same,Treatment-emergent adverse events (TEAEs),[1]; [3],125 (49.6) n (%)
same,Premature discontinuation due to Death,[1]; [4],0 n (%)
same,Premature discontinuation due to Lack of Efficacy,[1]; [4],2 (0.8) n (%)
same,TEAE: Akathisia,[1]; 3.0 mg/day + ADT,20 (7.9) n (%)
same,TEAE: Headache,[1]; 3.0 mg/day + ADT,11 (4.4) n (%)
same,TEAE: Insomnia,[1]; 3.0 mg/day + ADT,16 (6.3) n (%)
same,TEAE: Nausea,[1]; 3.0 mg/day + ADT,16 (6.3) n (%)
same,TEAE: Somnolence,[1]; 3.0 mg/day + ADT,11 (4.4) n (%)
same,Any Extrapyramidal Symptoms (EPS) TEAEs,[1]; [5],38 (15.1) n (%)
same,TEAE leading to discontinuation from study,[1]; [5],18 (7.1) n (%)
same,Treatment-emergent Serious AE (TESAE),[1]; [5],1 (0.4) n (%)
same,Deaths,[1]; [5],0 n (%)
same,Treatment-emergent adverse events (TEAEs),[1]; [5],124 (49.2) n (%)
same,Premature discontinuation due to Adverse Event,[1]; [6],18 (7.1) n (%)
same,Premature discontinuation due to Death,[1]; [6],0 n (%)
same,Premature discontinuation due to Lack of Efficacy,[1]; [6],0 n (%)
same,Most common adverse events occurring at ≥5% in the cariprazine groups,[1]; six-week study period,"akathisia, nausea, insomnia, headache and somnolence"
same,Safety results (overall),[1]; six-week study period,no new safety signals identified
same,"LS Mean (SE) change from baseline, CGI-S score","[2]; 1.5 mg/day + ADT, week 1",−0.3 (0.1)
same,"LSMD (95% CI) vs placebo + ADT, CGI-S score","[2]; 1.5 mg/day + ADT, week 1","−0.1 (−0.2, 0)"
same,"LS Mean (SE) change from baseline, CGI-S score","[2]; 1.5 mg/day + ADT, week 2",−0.7 (0.1)
same,"LSMD (95% CI) vs placebo + ADT, CGI-S score","[2]; 1.5 mg/day + ADT, week 2","−0.1 (−0.2, 0.1)"
same,"LS Mean (SE) change from baseline, CGI-S score","[2]; 1.5 mg/day + ADT, week 4",−1.1 (0.1)
same,"LSMD (95% CI) vs placebo + ADT, CGI-S score","[2]; 1.5 mg/day + ADT, week 4","−0.3 (−0.4, −0.1)"
same,"LS mean change from baseline, CGI-S score",[2]; 1.5 mg/day + ADT,−1.4 (0.1)
same,"LSMD vs placebo, CGI-S score",[2]; 1.5 mg/day + ADT,"−0.3 (−0.5, −0.1)"
same,"LS Mean (SE) change from baseline, CGI-S score","[2]; 3 mg/day + ADT, week 1",−0.3 (0.1)
same,"LSMD (95% CI) vs placebo + ADT, CGI-S score","[2]; 3 mg/day + ADT, week 1","0 (−0.1, 0.1)"
same,"LS Mean (SE) change from baseline, CGI-S score","[2]; 3 mg/day + ADT, week 2",−0.6 (0.1)
same,"LSMD (95% CI) vs placebo + ADT, CGI-S score","[2]; 3 mg/day + ADT, week 2","0 (−0.2, 0.1)"
same,"LS Mean (SE) change from baseline, CGI-S score","[2]; 3 mg/day + ADT, week 4",−1.0 (0.1)
same,"LSMD (95% CI) vs placebo + ADT, CGI-S score","[2]; 3 mg/day + ADT, week 4","−0.1 (−0.3, 0.1)"
same,"LS mean change from baseline, CGI-S score",[2]; 3 mg/day + ADT,−1.3 (0.1)
same,"LSMD vs placebo, CGI-S score",[2]; 3 mg/day + ADT,"−0.2 (−0.4, 0)"
